The record followed here is US20040077549A1, “Inhibitors of the E2F-1/cyclin interaction for cancer therapy” (priority 2000, published 2004).

The target of test [1] is E2F-1/Cyclin A interaction (Homo sapiens, UniProt P20248). The test is described as follows: E2F-1/Cyclin A/cdk2 ELISA. Type of test: binding. As for the experimental part: An ELISA was developed to identify antagonists of E2F-1/Cyclin A interaction. This method is based on interactions between three proteins, E2F-1, Cyclin A and cdk2 and is analyzed colorimetrically. This assay was used to determine IC50 values for various synthetic peptides that were used in biological experiments and for SAR studies.
This assay allows determination of IC50 values for various synthetic peptides that were used in biological experiments or for SAR studies.
Nunc Immulon II ELISA plates are coated overnight at 4° C. with 250 μL of […] anti-GST antibody (Pharmacia Biotech) in bicarbonate buffer. Following five washes with wash buffer consisting of 50 mM Tris (pH=7.5), 0.15 M NaCl, and 0.01% Tween-20 (TBST), non-specific sites were blocked for 2 hr at room temperature with 300 μL of assay buffer consisting of 50 mM HEPES (pH=7.5), 0.15 M NaCl, 0.1% Triton X-100, and 5% bovine serum albumin (BSA). Plates were then washed five times in TBST, aspirated dry, and treated with 100 μL of GST-E2F-1 in TBS (25 nM). GST-E2F-1 was incubated at RT for at least 1 hr with non-specific binding (NSB) control wells receiving assay buffer with no protein. Plates were washed five times in TBST and multiple concentrations of test compounds diluted in assay buffer were co-incubated with 5 nM Cyclin A/cdk2 diluted in assay buffer. The Cyclin A/cdk2 complex was freshly prepared by mixing a 1:1 ratio of the two proteins in TBS at 4° C. for 30 min prior to addition to the assay plate. Following incubation for 2 hr at RT, plates were washed five times in TBST, and 100 μL of a 1:500 dilution of a rabbit anti-cdk2 antibody (Santa Cruz) diluted in assay buffer and were added to all wells. Following incubation for at least 1 hr at RT or overnight at 4° C., the plates were washed five times in TBST and 100 μL of a 1:1000 dilution of a HRP-conjugated anti-rabbit IgG antibody (Pierce) were added to all wells. Following a half hour incubation at RT, the plates were washed five times in TBST, aspirated dry, and developed by the addition of 100 μL of a HRP substrate ABTS prepared in sodium citrate buffer (pH=4.2). After 10-15 min, absorbance is read using a microplate reader at 405 nm.
A general note: In an ELISA, binding on a coated surface is turned into a signal by an enzyme label.

For a further test, the system named is MDA-MB-231 cells. To be noted: read-out: IC50 growth inhibition; MDA-MB-231, 24 hr, MTS.
For the next test, the system named is A549 cells. The experiment in a line: Growth inhibition (MTS assay), A549. To be noted: A549, 24 hr. It is filed as cell-based, Human. The text has this:
(§1) Evaluation of Growth Inhibition.
For orientation: Tetrazolium dyes change colour on reduction, which living cells bring about.

Test [2] relates to MDA-MB-435 cells. The test is described as follows: Growth inhibition (MTS assay), MDA-MB-435. It is filed as cell-based, Human. Particulars: MDA-MB-435, 24 hr.
From the text: as §1

Test [3] deals with U2OS cells. The experiment in a line: Growth inhibition (MTS assay), U2OS. To be noted: for IC50: 24 hr, MTS; for cell morphology: beginning at about 3 hr post-treatment; for inhibition as measured by the MTS assay: asynchronous culture of U2OS. It is filed as cell-based, Human.
From the text: as §1

Another test relates to WI38/VA13 SV40 cells. To be noted: read-out: IC50 growth inhibition; WI38/VA13 SV40, 24 hr, MTS.
The subject of test [4] is U2OS cells. The test is described as follows: Uptake and intracellular compartmentalization (fluorescence microscopy), U2OS. It is filed as cell-based, Human. Particulars: 30 and 100 μM, 24 hr. As for the experimental part:
(§2) Peptide Treatment and Fluorescence Microscopy. 4×10^4 cells/well were plated on a 48 well plate at 10% FCS and cultured overnight. […] For detection of fluorescein-labeled peptides, cells were rinsed once with PBS (pH=7.3) and visualized using a fluorescence microscope (Axiovert 135 at 320×).
(§3) Uptake and Intracellular Compartmentalization of Tat Peptides. The internalization of the Tat-mt peptide labeled with fluorescein maleimide on the cysteine residue was investigated. The labeled peptide was verified by mass spectrometry and purified by HPLC before use. […] We further repeated the experiments with incubation of the peptide at 30 and 100 μM for 24 hr in osteosarcoma U2OS cells. […] The peptide was tested under the same conditions after direct labeling with fluorescein maleimide. No variation in the amount and localization of the internalized peptide was observed as compared with the Tat-peptide.

Test [5] has as its system MDA-MB-435 cells. The experiment in a line: Uptake and intracellular compartmentalization (fluorescence microscopy), MDA-MB-435. It is filed as cell-based, Human. Particulars: MDA-MB-435, after 30 min of incubation. As for the experimental part: as §2, §3
A further test has as its system SW480 cells. To be noted: read-out: IC50 growth inhibition; SW480, 24 hr, MTS.
In the next test the test system is HeCat cells. Particulars: read-out: IC50 growth inhibition, 24 hr, MTS.
A further test relates to Rat1 cells. To be noted: read-out: IC50 growth inhibition; Rat1, 24 hr, MTS.
The next test relates to HCT-116 cells. Particulars: read-out: IC50 growth inhibition; HCT-116, 24 hr, MTS.
The mark [6] stands for this setting: linear peptide, read-out: IC50 Linear.
The mark [7] stands for this setting: E2F-1/Cyclin A/cdk2 ELISA, read-out: IC50.
Setting [8] is: cyclic peptides, read-out: ELISA IC50.
The mark [9] stands for this setting: cyclized between side-chain amino group of Lys* and carboxyl group of Gly*, read-out: IC50 Cyclic.
Setting [10] is: original identified sequences (linear), read-out: IC50.

Where two headings read alike, the source gives them in different places. Where a SMILES comes first, the peptide text is derived from it. Bridges are numbered along the chain shown (N, C = ends). Where no end group is shown, it is not given here. [ ]: non-standard residue; d: D form.

Description for HCT-116 cells: (§4) MDA-MB-435, U2OS, A549, MDA-MB-231 cells were maintained in DMEM supplemented with 10% FCS. SW480 and HCT-116 were grown in RPMI 1640 supplemented with 10% FCS.
(§5) Evaluation of Growth Inhibition. 3×10^3 cells/well were plated on a 96 well plate at 10% FCS and cultured overnight. The culture medium was discarded, and the cells were washed once with Opti-MEM. The cell monolayers were incubated at 37° C. with peptide solutions at various concentrations for 24 hr. The growth inhibition was evaluated using solutions composed of 3-(4,5-dimethylthiazol-2-yl)-5-(3-carboxymethoxyphenyl)-2-(4-sulfophenyl)-2H-tetrazolium; MTS (from Promega) and phenazine methosulfate; PMS (from Sigma).
Description for HeCat cells: as §5
Description for MDA-MB-231 cells: as §4, §5
Description for Rat1 cells: as §5
Description for SW480 cells: as §4, §5
Description for WI38/VA13 SV40 cells: as §5

With `CC(=O)N[C@@H](CCCN=C(N)N)C(=O)N[C@@H](CCCCN)C(=O)N[C@@H](CC(C)C)C(=O)N[C@@H](Cc1ccccc1)C(=O)NCC(=O)O` [Ac-Arg-Lys-*Leu-Phe-Gly* (Linear), Ac-Arg-Lys-*Leu-Phe-Gly*], the IC50 in [1] (setting [6]) came to 30000 nM.

With `CC(C)C[C@@H]1NC(=O)[C@@H](NC(=O)[C@H](CCCNC(=N)N)NC(=O)[C@H](CCCCN)NC(=O)[C@H](C)NC(=O)[C@@H]2CCCN2C(=O)CNC(=O)[C@H](CCCNC(=N)N)NC(=O)[C@H](CCCNC(=N)N)NC(=O)[C@H](CCCNC(=N)N)NC(=O)[C@H](CCC(N)=O)NC(=O)[C@H](CCCNC(=N)N)NC(=O)[C@H](CCCNC(=N)N)NC(=O)[C@H](CCCCN)NC(=O)[C@H](CCCCN)NC(=O)[C@H](CCCNC(=N)N)NC(=O)CNC(=O)[C@@H](N)Cc2ccc(O)cc2)CCCCNC(=O)CNC(=O)[C@H](Cc2ccccc2)NC1=O` [Tat-cyclic, YGRKKRRQRRRG PAKR(KLFG)] (H-YGRKKRRQRRRGPAKRKLFG; lactam 17-C), the IC50 in [1] lay in the range of 100 to 1000 nM; in the test on MDA-MB-231 cells it was 6000 to 7000 nM; in the test on A549 cells, 26000 to 46000 nM; in the test with MDA-MB-435 cells [2], 6000 to 7000 nM; in the test on U2OS cells [3] (U2OS), 6000 to 7000 nM; in the test with WI38/VA13 SV40 cells, 6000 to 7000 nM. Moreover, in the test on U2OS cells [3] (U2OS), the cell morphology result is recorded as “rounded morphology”. Also, the “inhibition as measured by the MTS assay” value in the test on U2OS cells [3] was “dose-dependent inhibition”.

For the compound `CC(C)C[C@@H]1NC(=O)[C@@H](NC(=O)[C@H](CCCNC(=N)N)NC(=O)[C@H](CCCCN)NC(=O)[C@H](C)NC(=O)[C@H]2CCCN2)CCCCNC(=O)CNC(=O)[C@H](Cc2ccccc2)NC1=O` [compound 2, Pro-Ala-Lys-Arg-(Lys-Leu-Phe-Gly)] (H-[dP]AKRKLFG; lactam 5-C), the IC50 in test [1] (setting [7]), in test [1] (setting [8]) and in test [1] (setting [9]) was 1 nM in each case.

For `CC(=O)N[C@@H](C)C(=O)N[C@@H](CCCCN)C(=O)N[C@@H](CCCNC(=N)N)C(=O)N[C@H]1CCCCNC(=O)CNC(=O)[C@H](Cc2ccccc2)NC(=O)[C@H](CC(C)C)NC1=O` [compound 3, Ac-Ala-Lys-Arg-(Lys-Leu-Phe-Gly)] (Ac-AKRKLFG; lactam 4-C), the IC50 in [1] (setting [8]) and in test [1] (setting [9]) was 10 nM in each case.

As to `CC(=O)N[C@@H](CCCCN)C(=O)N[C@@H](CCCNC(=N)N)C(=O)N[C@H]1CCCCNC(=O)CNC(=O)[C@H](Cc2ccccc2)NC(=O)[C@H](CC(C)C)NC1=O` [compound 4, Ac-Lys-Arg-(Lys-Leu-Phe-Gly)] (Ac-KRKLFG; lactam 3-C), the half-inhibitory concentration (IC50) in [1] (setting [7]), in test [1] (setting [8]) and in [1] (setting [9]) was 20 nM throughout.

“Ac-AKRKLFG [Ac-Ala-Lys-Arg-Lys-*Leu-Phe-Gly*]”: in [1] (setting [6]), the IC50 came to 200 nM.

With “Ac-KRKLFG [Ac-Lys-Arg-Lys-*Leu-Phe-Gly* (Linear), Ac-Lys-Arg-Lys-*Leu-Phe-Gly*]”, the IC50 in [1] (setting [6]) is 1000 nM.

As for “FluMalCXYGRKKRRQRRRG PVKARLDL [FITC-Tat-mt]”, the “penetration to the nucleus” value in the test with U2OS cells [4] amounted to 100%. The intracellular localization entry in the test on MDA-MB-435 cells [5] was “mainly recovered from the nucleus with a nucleolar accumulation”.

For “PAKRKLFG [Pro-Ala-Lys-Arg-Lys-Leu-Phe-GIy]”, the IC50 in test [1] (setting [6]) and in test [1] (setting [10]) was 100 nM each time.

With SACRNLFG [reference compound], in test [1] (setting [10]), the IC50 came out at 200 nM.

On to YGRKKRRQRRRG [Tat, reference compound], for which, in the test on U2OS cells [3] (U2OS), the “failed to cause any morphological changes and MTS reading up to” value was above 300 μM.

Turning to “YGRKKRRQRRRGPVKRRLDL [Tat-linear, YGRKKRRQRRRG PVKRRLDL]”, the concentration for half-maximal inhibition (IC50) in test [1] was 100 to 1000 nM; in the test on SW480 cells, 26000 nM; in the test on HeCat cells, above 100000 nM; in the test with MDA-MB-435 cells [2], 48000 to 50000 nM; with U2OS cells [3] (U2OS), 28000 to 40000 nM; in the test on Rat1 cells, above 100000 nM. Also, in the test on HCT-116 cells, the IC50 amounted to 80000 nM. Further, the cell morphology entry with U2OS cells [3] (U2OS) is listed as “rounded morphology”. Moreover, the “inhibition as measured by the MTS assay” value in the test on U2OS cells [3] is “dose-dependent inhibition”.

In general, IC50 refers to the concentration needed to halve the response being measured.
